The results in this text go back to patent EP4696688A1, “BENZO-FUSED RING COMPOUND INHIBITOR, AND PREPARATION METHOD THEREFOR AND USE THEREOF” (Shanghai Hansoh Biomedical Co., Ltd., priority 2023, dated 2024).

Like-named read-outs stand apart in the source and are kept apart here. Where only a bound is given, the exact number is not on record here.

Data set [1] concerns the target T1, human CYP11B1 (Homo sapiens, UniProt P15538).
T1 construct: The main elements of an expression plasmid include ORF of human CYP11B1 or human CYP11B2; expressed in transfected cells
T1 sequence (P15538 25-503): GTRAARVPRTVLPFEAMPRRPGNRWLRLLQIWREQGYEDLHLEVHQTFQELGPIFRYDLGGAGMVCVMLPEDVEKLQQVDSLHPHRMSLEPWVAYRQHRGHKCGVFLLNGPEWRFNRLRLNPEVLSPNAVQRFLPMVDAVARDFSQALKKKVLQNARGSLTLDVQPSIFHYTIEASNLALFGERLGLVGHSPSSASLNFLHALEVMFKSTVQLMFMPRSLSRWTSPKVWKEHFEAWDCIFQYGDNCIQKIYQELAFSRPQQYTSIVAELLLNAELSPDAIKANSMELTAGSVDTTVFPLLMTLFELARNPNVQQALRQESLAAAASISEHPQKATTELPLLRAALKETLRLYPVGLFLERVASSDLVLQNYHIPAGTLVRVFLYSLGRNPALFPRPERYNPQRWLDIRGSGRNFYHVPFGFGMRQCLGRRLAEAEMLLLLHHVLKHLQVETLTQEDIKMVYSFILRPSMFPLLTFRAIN
The data set is described as follows: G-402 cell enzyme experiment, CYP11B1 (cortisol product, HTRF), selectivity versus CYP11B2. The data set is classed as cell-based. As to conditions: human selective factor: ratio of CYP11B1 EC50 to CYP11B2 EC50; G-402 cells. An excerpt:
(§1) G-402 cell line was used as host cells to express (by transient or stable transfection) an enzyme of the human CYP11 family. Specifically, G-402 cell lines stably expressing human CYP11B1 and human CYP11B2 were established respectively. […] Therefore, the G-402 cell line is very suitable as a host cell for the ectopic expression of an enzyme of the CYP11 family.
(§2) The G-402 cell line, originally derived from renal myoblastoma, can be obtained from ATCC (CRL-1440). The main elements of an expression plasmid include ORF of human CYP11B1 or human CYP11B2, a suitable promoter (CMV promoter), and a suitable resistance marker (neomycin). The expression plasmid was transfected into G-402 cells by standard technology, and a specific antibiotic was then given for screening. The activity of the enzyme expressed by the screened monoclonal cells was assessed by 11-deoxycorticosterone (substrate of CYP11B2) and 11-deoxycortisol (substrate of CYP11B1).
(§3) The G-402 cells expressing CYP11 plasmid, as established in the above solution, were cultured in McCoy's 5a Modified Medium (ATCC Catalog No. 30-2007) containing 10% FCS and 400 µg/ml G418 in an incubator at 37°C and 5% CO2. A cell enzyme experiment was carried out using DMEM/F12 medium containing 2.5% charcoal-treated FBS and an appropriate concentration of a substrate (1 µM 11-deoxycorticosterone or 1 µM 11-deoxycortisol). In order to detect the activity of the enzyme in the cells, the cells were plated in a 96-well plate and incubated for 16 h. The supernatant was then transferred and analyzed for the concentration of the expected product (the product of CYP11B2: aldosterone; the product of CYP11B1: cortisol). The concentrations of these products were determined by an HTRF experiment of CisBio.
(§4) In the cell enzyme experiment, the inhibitory effect of the test compound on the generated product can reflect the inhibitory effect thereof on the enzyme. The dose-dependent inhibition of the enzyme activity by the compound was calculated by plotting the concentration of the test compound (x axis) versus the measured product level (y axis). Then, the original data was fitted to a 4-parameter sigmoidal function (Morgan-Mercer-Flodin, MMF model) by least square method: y = (AB + Cx^D) / (B + x^D) in which A is the maximum y value, B is the EC50 determined by XLFit, C is the minimum y value, and D is the slope value. The maximum value A corresponds to the amount of the product detected without an inhibitor, and C corresponds to the amount of the product detected in the G402 cells expressing an empty plasmid.
(§5) The EC50 value of the compound of the present invention was determined by the above G-402 experiment system. The activity of the CYP11B2 enzyme was determined under the conditions of 1 µM 11-deoxycorticosterone and a variable amount of the inhibitor, and the activity of the CYP11B1 enzyme was determined under the conditions of 1 µM 11-deoxycortisol and a variable amount of the inhibitor.
For orientation: TR-FRET usually uses a lanthanide donor and a delayed reading to cut background.

A short description of data set [2]: Pharmacokinetic determination in rats. The data set is classed as in vivo. Conditions: rat, male SD rats, plasma, oral administration (PO) 5 mg/kg; for MRT inf: read-out: MRT0-∞. As for the experimental part: SD rats were used as test animals to study the pharmacokinetic behavior of the compounds of the present invention in rats (plasma) after oral administration.
3 SD rats per group, male.
Formulation of drug for oral administration: 0.5% CMC-Na (1% Tween 80)
5 g of sodium carboxymethyl cellulose (CMC-Na, viscosity: 800-1200 Cps) was weighed and dissolved in 1000 mL of purified water, and 10 g of Tween 80 was added. These materials were uniformly mixed to form a clear solution.
The example compounds were weighed and dissolved in the solution and the mixture was shaken well and ultrasonicated for 15 min to obtain a colorless clear solution with a concentration of 0.5 mg/mL. Formulation of drug for intravenous administration: 5% DMSO + 10% Solutol HS15 + 85% PBS
After overnight fasting, 3 male SD rats per group were administered orally (PO) at a dose of 5 mg/kg with an administration volume of 10 mL/kg. […]
0.2 mL of blood was collected from the jugular vein of the experimental animals before administration and at 0.25 h, 0.5 h, 1.0 h, 2.0 h, 4.0 h, 6.0 h, 8.0 h, and 24.0 h after administration and placed in an EDTA-2K test tube, and the test tube was centrifuged at 8000 rpm for 6 min at 4°C to separate the plasma, which was stored at -80°C; and the animals were fed 4 h after administration.
3 Experimental results: The final determination results were obtained by using LCMS/MS method.

Data set [3] deals with T2, human CYP11B2 (Homo sapiens, UniProt P19099).
T2 construct: The main elements of an expression plasmid include ORF of human CYP11B1 or human CYP11B2; expressed in transfected cells
T2 sequence (P19099 25-503): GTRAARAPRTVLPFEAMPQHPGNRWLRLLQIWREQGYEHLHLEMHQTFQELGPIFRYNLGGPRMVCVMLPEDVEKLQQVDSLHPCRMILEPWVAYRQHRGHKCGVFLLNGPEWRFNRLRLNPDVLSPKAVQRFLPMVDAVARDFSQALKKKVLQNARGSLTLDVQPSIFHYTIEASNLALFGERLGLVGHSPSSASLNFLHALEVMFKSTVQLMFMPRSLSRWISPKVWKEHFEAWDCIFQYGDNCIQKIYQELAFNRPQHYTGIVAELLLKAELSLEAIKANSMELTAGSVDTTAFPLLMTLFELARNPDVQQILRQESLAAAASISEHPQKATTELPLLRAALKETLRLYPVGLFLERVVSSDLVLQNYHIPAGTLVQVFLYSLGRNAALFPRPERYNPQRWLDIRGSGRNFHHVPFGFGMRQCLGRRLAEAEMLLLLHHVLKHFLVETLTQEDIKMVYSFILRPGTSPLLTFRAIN
The data set is described as follows: G-402 cell enzyme experiment, CYP11B2 (aldosterone product, HTRF). As to conditions: G-402 cells stably expressing human CYP11B2, 1 µM 11-deoxycorticosterone, 16 h. The class given is cell-based.
Excerpt: as §1, §2, §3, §4, §5

“6-(5-(2-ethoxyquinolin-6-yl)pyridin-3-yl)-2,6-diazaspiro[3.3]heptan-2-yl)(1-(methyl-d3)-1H-pyrazol-4-yl)methanone [Example 42]”: in data set [1], the hsF is given as 393x.

For the molecule `CCC(=O)N[C@@H]1CCCc2c(-c3ccc4c(c3)COC(=O)N4C)cncc21` [Example 1-A], the hsF in data set [1] worked out at 144x. In addition, in data set [2], the AUC(0-inf) (commonly the area under the concentration-time curve extrapolated to infinity) was 27700 ng·h/mL; the AUC(0-t) (usually exposure summed from dosing to a finite time, without extrapolation to infinity) was found to be 27600 ng·h/mL; the Cmax (usually the highest concentration seen after dosing) amounted to 6330 ng/mL; the Tmax (commonly the time from dosing to the highest level) came out at 1 h. Besides, in data set [2], the half-life (as a rule, the time needed for the level to fall by half in the phase considered) is 2.6 h and the MRT inf turned out to be 3.7 h.

For `CN1C(=O)OCc2cc(-c3cncc(N4CC5(CN(C(=O)c6cnn(C)c6)C5)C4)c3)ccc21` [Example 5, 1-Methyl-6-(5-(6-(1-methyl-1H-pyrazole-4-carbonyl)-2,6-diazaspiro[3.3]heptan-2-yl)pyridin-3-yl)-1,4-dihydro-2H-benzo[d][1,3]oxazin-2-one], in data set [1], the hsF is above 1279x.

For `CCC(=O)NC1CCCc2c(-c3ccc4nc(OC)ccc4c3)cncc21` (stereo not drawn) [Example 14-A], the midpoint of the response in data set [3], the EC50, lay at 24 nM.

In the case of `CN1C(=O)OCc2cc(-c3cncc(C4=CCN(S(=O)(=O)C5CC5)CC4)c3)ccc21` [Example 41, 6-(1'-(cyclopropylsulfonyl)-1',2',3',6'-tetrahydro-[3,4'-bipyridine]-5-yl)-1-methyl-1,4-dihydro-2H-benzo[d][1,3]oxazin-2-one], the hsF in data set [1] came out at 394x.

In the case of `CC(=O)N[C@@H]1CCCc2c(-c3cnc4c(c3)CCC(=O)N4C)cncc21` [Example 59, (R)-N-(4-(8-methyl-7-carbonyl-5,6,7,8-tetrahydro-1,8-diazanaphthalen-3-yl)-5,6,7,8-tetrahydroisoquinolin-8-yl)acetamide], the hsF in data set [1] is recorded as above 388x.

On to `CCC(=O)N[C@H]1c2cncc(-c3ccc4c(c3)sc(=O)n4C)c2C2CC21` (stereo partly drawn) [Example 66-P2, N-((6R)-4-(3-methyl-2-oxo-2,3-dihydrobenzo[d]thiazol-6-yl)-4b,5,5a,6-tetrahydrocyclopropyl[3,4]cyclopenta[1,2-c]pyridin-6-yl)propanamide], for which the hsF in data set [1] is recorded as above 1471x.

For `Cn1cc(C(=O)N2CC3(C2)CN(c2cncc(-c4ccc5c(c4)sc(=O)n5C)c2)C3)cn1` [Example 67, 3-methyl-6-(5-(6-(1-methyl-1H-pyrazole-4-carbonyl)-2,6-diazaspiro[3.3]heptan-2-yl)pyridin-3-yl)benzo[d]thiazol-2(3H)-one], the hsF in data set [1] is recorded as above 485x. For the same molecule, in data set [2], the AUC(0-inf) came to 31400 ng·h/mL, the AUC(0-t) was 31400 ng·h/mL, the Cmax came out at 4910 ng/mL and the Tmax worked out at 4 h. Further, in data set [2], the half-life was 2 h and the MRT inf came out at 3.9 h.

`Cn1cc(C(=O)N2CC3(C2)CN(c2cncc(-c4ccc5c(ccc(=O)n5C)c4)c2)C3)cn1` [Example 69, 1-methyl-6-(5-(6-(1-methyl-1H-pyrazole-4-carbonyl)-2,6-diazaspiro[3.3]heptan-2-yl)pyridin-3-yl)quinolin-2(1H)-one]: in data set [1], the hsF amounted to 585x.

On to `CN(c1cncc(-c2ccc3c(ccc(=O)n3C)c2)c1)C1CN(C(=O)c2cnn(C)c2)C1` [Example 74, 1-methyl-6-(5-(methyl(1-(1-methyl-1H-pyrazole-4-carbonyl)azetidin-3-yl)amino)pyridin-3-yl)quinolin-2(1)-one], for which the hsF in data set [1] came to 371x.

For the molecule `CN1C(=O)C2CC2c2cc(-c3cncc(N4CC5(CN(C(=O)c6cnn(C)c6)C5)C4)c3)ccc21` (stereo not drawn) [Example 75, 3-methyl-6-(5-(6-(1-methyl-1H-pyrazole-4-carbonyl)-2,6-diazaspiro[3.3]heptan-2-yl)pyridin-3-yl)-1,1a,3,7b-tetrahydro-2H-cyclopropa[c]quinolin-2-one], the hsF in data set [1] is reported as above 16666x.

For the molecule `Cn1cc(C(=O)N2CC(Oc3cncc(-c4ccc5c(ccc(=O)n5C)c4)c3)C2)cn1` [Example 98, 1-methyl-6-(5-((1-(1-methyl-1H-pyrazole-4-carbonyl)azetidin-3-yl)oxy)pyridin-3-yl)quinolin-2(1H)-one], in data set [1], the hsF came to 2014x.

With `Cn1cc(C(=O)N2CC(Oc3cncc(-c4ccc5c(c4)sc(=O)n5C)n3)C2)cn1` [Example 99, 3-methyl-6-(6-((1-(1-methyl-1H-pyrazole-4-carbonyl)azetidin-3-yl)oxy)pyrazin-2-yl)benzo[d]thiazol-2(3H)-one], in data set [1], the hsF was above 3509x.

As for `Cn1c(=O)sc2cc(-c3cncc(N4CC5(CN(C(=O)C6(C#N)CC6)C5)C4)c3)ccc21` [Example 105, 1-(6-(5-(3-methyl-2-carbonyl-2,3-dihydrobenzo[d]thiazol-6-yl)pyridin-3-yl)-2,6-diazaspiro[3.3]heptane-2-carbonyl)cyclopropane-1-carbonitrile], the hsF in data set [1] turned out to be 1372x. Besides, in data set [2] (in vivo), the AUC(0-inf) stood at 66500 ng·h/mL, the AUC(0-t) stood at 60400 ng·h/mL, the peak level (Cmax) was 6040 ng/mL and the Tmax was 4 h. In data set [2] (in vivo), the half-life is 7 h and the MRT inf turned out to be 9.6 h.

`Cn1c(=O)sc2cc(-c3cncc(N4CC5(CN(C(=O)C6(C#N)CC6)C5)C4)n3)ccc21` [Example 106, 1-(6-(6-(3-methyl-2-carbonyl-2,3-dihydrobenzo[d]thiazol-6-yl)pyrazin-2-yl)-2,6-diazaspiro[3.3]heptane-2-carbonyl)cyclopropane-1-carbonitrile]: the hsF in data set [1] stood at 3103x.
